Measured values from ChEMBL document CHEMBL1201862, “PubChem BioAssay data set” (2004).
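Test compounds were applied to cells in 96-well plates for 48 hours at 5 doses. The concentration for 50% growth inhibition is given as GI50.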 Active and inactive are the calls of the source. No stated cut-off is given here; in the data, active = GI50 up to about 1.1 µM and inactive = higher.

What was measured:
Assay in all cases: NCI tumour cell line growth inhibition, 48 h
UACC-62 = test system: UACC-62
SNB-19 = test system: SNB-19
A549 = test system: A549
UO-31 = test system: UO-31
NCI-H23 = test system: NCI-H23
SK-MEL-2 = test system: SK-MEL-2
OVCAR-4 = test system: OVCAR-4
TK-10 = test system: TK-10
SK-OV-3 = test system: SK-OV-3
SNB-78 = test system: SNB-78
786-0 = test system: 786-0
U-251 = test system: U-251
NCI-H522 = test system: NCI-H522
KM12 = test system: KM12
SF-268 = test system: SF-268
HOP-62 = test system: HOP-62
CCRF-CEM = test system: CCRF-CEM
MOLT-4 = test system: MOLT-4
OVCAR-3 = test system: OVCAR-3
MDA-N = test system: MDA-N

Measured: GI50

Nc1nc(=O)c(/N=N/c2ccccc2)c(N)[nH]1
inactive: UACC-62 18.6 µM | SNB-19 > 100 µM | A549 29.9 µM | UO-31 42.4 µM | NCI-H23 22.8 µM | SK-MEL-2 39.2 µM | OVCAR-4 > 100 µM | TK-10 59.8 µM | SK-OV-3 60.3 µM | SNB-78 19.6 µM | 786-0 55 µM | U-251 14.4 µM | NCI-H522 47.4 µM | KM12 56.2 µM | SF-268 28.1 µM | HOP-62 30.8 µM | CCRF-CEM 36.5 µM | MOLT-4 > 100 µM | OVCAR-3 71.8 µM

Cc1c2ccnc(C(N)=O)c2c(C)c2c1[nH]c1ccccc12
inactive: UACC-62 4.92 µM | SNB-19 8.13 µM | A549 5.47 µM | UO-31 6.43 µM | NCI-H23 4.84 µM | SK-MEL-2 13.1 µM | OVCAR-4 9.31 µM | TK-10 5.55 µM | SK-OV-3 7.66 µM | SNB-78 14 µM | 786-0 5.08 µM | U-251 8.51 µM | NCI-H522 7.59 µM | KM12 6.07 µM | SF-268 5.46 µM | HOP-62 5.97 µM | CCRF-CEM 4.73 µM | MOLT-4 2.72 µM | OVCAR-3 9.08 µM

COC(=O)[C@@H]1CSC(=S)N1C(=O)C[C@H]1CC=CC[C@H]1CC(=O)Sc1ccccc1
inactive: UACC-62 19.3 µM | SNB-19 18.2 µM | A549 17.7 µM | UO-31 13.8 µM | NCI-H23 21 µM | SK-MEL-2 22.2 µM | OVCAR-4 > 10 µM | TK-10 > 10 µM | SK-OV-3 27.8 µM | SNB-78 22.3 µM | 786-0 17.5 µM | U-251 15.5 µM | NCI-H522 12 µM | KM12 15.1 µM | SF-268 15.1 µM | HOP-62 20.7 µM | CCRF-CEM 3.04 µM | MOLT-4 4.29 µM | OVCAR-3 19.2 µM

N#Cc1nc(Nc2ccc(Cl)cc2)sc1N
inactive: UACC-62 10.1 µM | SNB-19 22.1 µM | A549 10.7 µM | UO-31 3.62 µM | NCI-H23 3.19 µM | SK-MEL-2 15.1 µM | OVCAR-4 24 µM | TK-10 23 µM | SK-OV-3 21.5 µM | SNB-78 10.8 µM | 786-0 8.43 µM | U-251 10.2 µM | NCI-H522 3.01 µM | KM12 13.8 µM | SF-268 5.47 µM | HOP-62 15 µM | CCRF-CEM 2.94 µM | MOLT-4 1.52 µM | OVCAR-3 17.8 µM

C=CCc1cc(-c2cc(CC=C)c(O)c(CN(CCCl)CCCl)c2)cc(CN(CCCl)CCCl)c1O
inactive: UACC-62 7.89 µM | SNB-19 19.1 µM | A549 13.7 µM | UO-31 16.3 µM | NCI-H23 6.89 µM | SK-MEL-2 22.1 µM | OVCAR-4 17.6 µM | TK-10 19.3 µM | SK-OV-3 18.9 µM | SNB-78 35.4 µM | 786-0 7.94 µM | U-251 10.8 µM | NCI-H522 10.9 µM | KM12 18.2 µM | SF-268 12.7 µM | HOP-62 14 µM | CCRF-CEM 3.03 µM | MDA-N 15.2 µM | MOLT-4 2.52 µM | OVCAR-3 15.2 µM

C[N+](C)(C)CC1CCC/C1=N/O (stereo not given)
inactive: UACC-62 > 100 µM | SNB-19 > 100 µM | A549 > 100 µM | UO-31 > 100 µM | NCI-H23 > 100 µM | SK-MEL-2 > 100 µM | OVCAR-4 > 100 µM | TK-10 > 100 µM | SK-OV-3 > 100 µM | SNB-78 > 100 µM | 786-0 22.2 µM | U-251 48.4 µM | NCI-H522 > 100 µM | KM12 > 100 µM | SF-268 > 100 µM | HOP-62 > 100 µM | CCRF-CEM 17.9 µM | MOLT-4 > 100 µM | OVCAR-3 > 100 µM

C=CCc1cc(OC)c(O)c(C(=O)/C=C/c2ccc(OC)c(OC)c2)c1
inactive: UACC-62 23.8 µM | SNB-19 15.6 µM | A549 28.9 µM | UO-31 15.9 µM | NCI-H23 15 µM | SK-MEL-2 13.3 µM | OVCAR-4 16.2 µM | TK-10 25.1 µM | SK-OV-3 28.5 µM | SNB-78 28.8 µM | 786-0 18.2 µM | U-251 17.4 µM | NCI-H522 1.86 µM | KM12 19.5 µM | SF-268 24.4 µM | HOP-62 > 10 µM | CCRF-CEM 9.98 µM | MOLT-4 1.2 µM | OVCAR-3 19.3 µM

O=C1NC(=O)C(C(=O)C(=O)Nc2cccc(C(F)(F)F)c2)C(=O)N1
inactive: UACC-62 > 100 µM | SNB-19 > 100 µM | A549 > 100 µM | UO-31 > 100 µM | NCI-H23 > 100 µM | SK-MEL-2 > 100 µM | OVCAR-4 > 100 µM | TK-10 > 100 µM | SK-OV-3 > 100 µM | SNB-78 > 100 µM | 786-0 > 100 µM | U-251 > 100 µM | NCI-H522 > 100 µM | KM12 > 100 µM | SF-268 > 100 µM | HOP-62 > 100 µM | CCRF-CEM > 100 µM | MOLT-4 > 100 µM | OVCAR-3 > 100 µM

CCCNC(=O)C(C)(Cl)C(=O)c1ccccc1O (stereo not given)
inactive: UACC-62 > 100 µM | SNB-19 > 100 µM | A549 > 100 µM | UO-31 > 100 µM | SK-MEL-2 > 100 µM | OVCAR-4 > 100 µM | TK-10 > 100 µM | SK-OV-3 > 100 µM | SNB-78 > 100 µM | 786-0 > 100 µM | U-251 > 100 µM | NCI-H522 > 100 µM | KM12 > 100 µM | SF-268 > 100 µM | HOP-62 > 100 µM | CCRF-CEM > 100 µM | MOLT-4 > 100 µM | OVCAR-3 > 100 µM

CCOC(=O)C1C(c2ccc(Br)cc2)N(Cc2ccccc2)C(c2ccc(Br)cc2)C(C(=O)OC)S1(=O)=O (stereo not given)
inactive: UACC-62 > 100 µM | SNB-19 27.5 µM | A549 76.9 µM | UO-31 49.7 µM | NCI-H23 > 100 µM | SK-MEL-2 > 100 µM | OVCAR-4 29.1 µM | TK-10 > 100 µM | SK-OV-3 > 100 µM | SNB-78 > 100 µM | 786-0 32.3 µM | NCI-H522 50.6 µM | KM12 > 100 µM | SF-268 39.6 µM | HOP-62 > 100 µM | CCRF-CEM 40.4 µM | MOLT-4 > 100 µM | OVCAR-3 > 100 µM

CCOC(=O)c1s/c(=N\Nc2nc3ccccc3cc2C2OCCO2)n(Cc2ccccc2)c1C
inactive: UACC-62 > 100 µM | SNB-19 > 100 µM | A549 > 100 µM | UO-31 > 100 µM | NCI-H23 > 100 µM | SK-MEL-2 > 100 µM | OVCAR-4 > 100 µM | TK-10 > 100 µM | SK-OV-3 > 100 µM | SNB-78 > 100 µM | 786-0 > 100 µM | U-251 > 100 µM | NCI-H522 > 100 µM | KM12 > 100 µM | SF-268 > 100 µM | HOP-62 > 100 µM | CCRF-CEM > 100 µM | MOLT-4 40.2 µM | OVCAR-3 > 100 µM

Nc1nc(SCCC/C=C/B(O)O)nc2c1ncn2C1OC(COP(=O)(O)O)C(O)C1O (stereo not given)
inactive: UACC-62 > 203 µM | SNB-19 > 203 µM | A549 > 203 µM | UO-31 > 203 µM | NCI-H23 > 203 µM | SK-MEL-2 > 203 µM | OVCAR-4 > 203 µM | TK-10 > 203 µM | SK-OV-3 > 203 µM | SNB-78 > 203 µM | 786-0 > 203 µM | U-251 > 203 µM | NCI-H522 115 µM | KM12 > 203 µM | SF-268 > 203 µM | HOP-62 > 203 µM | CCRF-CEM > 203 µM | MOLT-4 > 203 µM | OVCAR-3 > 203 µM

O=C1CC2CCN(C(=O)c3ccccc3)CC2CCN1.O=C1CCC2CC(C(=O)c3ccccc3)CCC2CN1 (stereo not given)
inactive: UACC-62 52.1 µM | SNB-19 > 100 µM | A549 > 100 µM | UO-31 > 100 µM | NCI-H23 > 100 µM | SK-MEL-2 > 100 µM | OVCAR-4 > 100 µM | SK-OV-3 > 100 µM | SNB-78 > 100 µM | 786-0 > 100 µM | U-251 > 100 µM | NCI-H522 > 100 µM | KM12 > 100 µM | SF-268 > 100 µM | HOP-62 > 100 µM | CCRF-CEM > 100 µM | MOLT-4 > 100 µM | OVCAR-3 > 100 µM
